These results are taken from ChEMBL document CHEMBL4043262, “Plasma-induced dimerization of phloridzin as a new class of anti-adipogenic agents” (Bioorg Med Chem Lett, 2017).

Series [1] deals with 3T3-L1. Put plainly: Anti-adipogenic activity in mouse 3T3L1 cells assessed as reduction in lipid accumulation at 25 uM administered for 8 days measured post last dose by Oil Red O staining based assay relative to control. The format is functional. The arrangement: scale not given: the % may be the effect or the level left.
Series [2] addresses T1, Pancreatic triacylglycerol lipase (Sus scrofa, UniProt P00591).
T1 sequence (P00591 whole entry): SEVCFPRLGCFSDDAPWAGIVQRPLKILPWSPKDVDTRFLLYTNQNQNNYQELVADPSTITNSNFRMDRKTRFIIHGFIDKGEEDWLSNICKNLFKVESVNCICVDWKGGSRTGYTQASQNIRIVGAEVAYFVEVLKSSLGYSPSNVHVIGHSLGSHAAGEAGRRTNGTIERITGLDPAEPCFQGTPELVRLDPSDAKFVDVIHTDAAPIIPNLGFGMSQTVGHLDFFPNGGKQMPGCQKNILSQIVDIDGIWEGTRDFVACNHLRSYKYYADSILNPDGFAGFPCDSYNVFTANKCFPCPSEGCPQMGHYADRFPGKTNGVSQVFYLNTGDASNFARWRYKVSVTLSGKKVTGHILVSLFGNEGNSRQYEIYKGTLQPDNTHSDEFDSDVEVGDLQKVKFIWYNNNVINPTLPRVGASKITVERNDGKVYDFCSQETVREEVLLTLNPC
Put plainly: Inhibition of porcine pancreatic lipase using p-nitrophenyl butyrate as substrate pretreated for 15 mins followed by substrate addition measured after 15 mins by spectrophotometric method.

Series [3] deals with 3T3-L1. Put plainly: Anti-adipogenic activity in mouse 3T3L1 cells assessed as reduction in lipid accumulation at 50 uM administered for 8 days measured post last dose by Oil Red O staining based assay relative to control. The format is functional. Details: scale not given: the % may be the effect or the level left.
The test system of series [4] is 3T3-L1. Put plainly: Cytotoxicity against mouse 3T3L1 cells up to 48 hrs by MTT assay. The note with it: 3t3-l1, 48 h. The format is cell-based. (Tetrazolium assays rely on reduction of a dye to a coloured formazan, in cell work by metabolically active cells.)
Series [5] has as its system 3T3-L1. Briefly: Anti-adipogenic activity in mouse 3T3L1 cells assessed as reduction in lipid accumulation at 100 uM administered for 8 days measured post last dose by Oil Red O staining based assay relative to control. The format is functional. The arrangement: scale not given: the % may be the effect or the level left.
The target of series [6] is T1, Pancreatic triacylglycerol lipase. Put plainly: Inhibition of porcine pancreatic lipase using p-nitrophenyl butyrate as substrate pretreated for 15 mins followed by substrate addition measured after 15 mins in presence of plasma by spectrophotometric method.

In general, IC50 refers to the concentration that inhibits the measured activity by half. For `O=C(CCc1ccc(O)cc1)c1c(O)cc(O)c(Cc2c(O)cc(O)c(C(=O)CCc3ccc(O)cc3)c2O)c1O`, the Activity was 60.3% in the series on 3T3-L1 [1], 45.7% in the series on 3T3-L1 [3], “Non-Toxic” in the series with 3T3-L1 [4] and 36.5% with 3T3-L1 [5]. In addition, the IC50 in series [2] came out at 5.2 µM.
With `O=C(CCc1ccc(O)cc1)c1c(O[C@@H]2O[C@H](CO)[C@@H](O)[C@H](O)[C@H]2O)cc(O)c(Cc2c(O)cc(O[C@@H]3O[C@H](CO)[C@@H](O)[C@H](O)[C@H]3O)c(C(=O)CCc3ccc(O)cc3)c2O)c1O`, in series [2], the IC50 turned out to be 257 µM. Moreover, the Activity result with 3T3-L1 [4] is listed as “Non-Toxic”.
The like results for `O=C(CCc1ccc(O)cc1)c1c(O)cc(O)c(Cc2c(O)cc(O[C@@H]3O[C@H](CO)[C@@H](O)[C@H](O)[C@H]3O)c(C(=O)CCc3ccc(O)cc3)c2O)c1O` were, in that order, 14.7 µM and “Non-Toxic”.
The like results for `O=C(CCc1ccc(O)cc1)c1c(O)cc(O)cc1O` [PHLORETIN] were, in that order, 50.4 µM and “Non-Toxic”.
Take `O=C(CCc1ccc(O)cc1)c1c(O)cc(O)cc1O[C@@H]1O[C@H](CO)[C@@H](O)[C@H](O)[C@H]1O` [PHLORIZIN]: the 50% inhibitory concentration (IC50) in series [2] was over 300 µM; in series [6] it was 68.3 µM. In addition, the Activity result in the series on 3T3-L1 [4] is reported as “Non-Toxic”.
